The supplement of paper PMC10307832

Columns and labels:
Assay in all cases: relative viability (nuclei count vs DMSO), 5 days (fraction); higher = more cells survive
[1] = compound: CC1=NN=C(O1)C2=NN=C(C=C2)N3CCC(CC3)OC4=C(C=CC(=C4)F)Cl + N=C(N)NC(=N)NCCc1ccccc1 [Phenformin] (partner 250 µM)
Outline: (§1)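 One day after seeding in 1536-well plates, lung cancer cell lines were dosed by pin tool. Dosing was either single-drug or a fixed anchor-drug dose plus five library-drug doses (not always all listed) in √10 steps. After 5 days, nuclei were stained in one fix-and-stain step and counted on 4× images, and relative viability is the nuclei count of treated wells over that of vehicle wells, given as the median of duplicate plates.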

Tosedostat + Navitoclax = compound: CC(C)C[C@@H](C(=O)N[C@H](C(=O)OC1CCCC1)c1ccccc1)[C@H](O)C(=O)NO [Tosedostat] + CC1(C)CCC(c2ccc(Cl)cc2)=C(CN2CCN(c3ccc(C(=O)NS(=O)(=O)c4ccc(N[C@H](CCN5CCOCC5)CSc5ccccc5)c(S(=O)(=O)C(F)(F)F)c4)cc3)CC2)C1 [Navitoclax] (partner 0.5 µM)
Outline: as §1

Tosedostat + Pemetrexed = compound: CC(C)C[C@@H](C(=O)N[C@H](C(=O)OC1CCCC1)c1ccccc1)[C@H](O)C(=O)NO [Tosedostat] + Nc1nc2[nH]cc(CCc3ccc(C(=O)N[C@@H](CCC(=O)O)C(=O)O)cc3)c2c(=O)[nH]1 [Pemetrexed] (partner 0.2 µM)
Outline: as §1

Tosedostat + Bortezomib = compound: CC(C)C[C@@H](C(=O)N[C@H](C(=O)OC1CCCC1)c1ccccc1)[C@H](O)C(=O)NO [Tosedostat] + CC(C)C[C@H](NC(=O)[C@H](Cc1ccccc1)NC(=O)c1cnccn1)B(O)O [Bortezomib] (partner 0.002 µM)
Outline: as §1

Cell Line | relative viability ([1]; first compound 0.253 µM) | relative viability ([1]; first compound 0.8 µM) | relative viability ([1]; first compound 2.53 µM) | relative viability ([1]; first compound 8 µM) | relative viability (Tosedostat + Navitoclax; first compound 0.02 µM) | relative viability (Tosedostat + Navitoclax; first compound 0.06325 µM) | relative viability (Tosedostat + Navitoclax; first compound 0.2 µM) | relative viability (Tosedostat + Navitoclax; first compound 0.6325 µM) | relative viability (Tosedostat + Navitoclax; first compound 2 µM) | relative viability (Tosedostat + Pemetrexed; first compound 0.02 µM) | relative viability (Tosedostat + Pemetrexed; first compound 0.06325 µM) | relative viability (Tosedostat + Pemetrexed; first compound 0.2 µM) | relative viability (Tosedostat + Pemetrexed; first compound 0.6325 µM) | relative viability (Tosedostat + Pemetrexed; first compound 2 µM) | relative viability (Tosedostat + Bortezomib; first compound 0.02 µM) | relative viability (Tosedostat + Bortezomib; first compound 0.06325 µM) | relative viability (Tosedostat + Bortezomib; first compound 0.2 µM) | relative viability (Tosedostat + Bortezomib; first compound 0.6325 µM) | relative viability (Tosedostat + Bortezomib; first compound 2 µM)
HCC-15 | 0.441 | 0.396 | 0.427 | 0.428 | 0.772 | 0.729 | 0.684 | 0.659 | 0.57 | 0.234 | 0.221 | 0.213 | 0.243 | 0.249 | 1.19 | 0.98 | 0.956 | 0.869 | 0.998
HCC-44 | 0.267 | 0.167 | 0.178 | 0.157 | 0.849 | 0.912 | 0.949 | 0.946 | 0.539 | 0.69 | 0.68 | 0.679 | 0.642 | 0.639 | 0.886 | 0.883 | 0.937 | 0.793 | 0.459
IA-LM |  |  |  |  | 0.731 | 0.655 | 0.875 | 0.585 | 0.603 |  |  |  |  |  | 0.854 | 0.731 | 0.814 | 0.848 | 0.735
LCLC-103H | 0.36 | 0.344 | 0.335 | 0.225 |  |  |  |  |  | 0.507 | 0.522 | 0.533 | 0.494 | 0.57 | 1.1 | 0.947 | 1.05 | 1.25 | 1.06
LK-2 | 0.576 | 0.433 | 0.661 | 0.38 | 0.905 | 0.855 | 0.788 | 0.909 | 0.976 | 0.244 | 0.249 | 0.348 | 0.274 | 0.374 |  |  |  |  | 
NCI-H358 | 0.369 | 0.304 | 0.359 | 0.305 |  |  |  |  |  | 0.173 | 0.2 | 0.164 | 0.143 | 0.161 |  |  |  |  | 
NCI-H522 | 0.679 | 0.632 | 0.855 | 0.526 |  |  |  |  |  | 1.14 | 1.02 | 1.06 | 1.06 | 0.979 |  |  |  |  | 
NCI-H650 | 0.478 | 0.444 | 0.43 | 0.414 |  |  |  |  |  | 1.01 | 0.846 | 0.895 | 0.873 | 0.804 | 0.958 | 0.894 | 0.562 | 0.685 | 0.504
NCI-H661 | 0.282 | 0.308 | 0.244 | 0.277 |  |  |  |  |  | 0.959 | 0.9 | 0.97 | 0.984 | 0.994 | 0.846 | 0.69 | 0.894 | 0.63 | 0.768
NCI-H727 | 0.613 |  | 0.496 | 0.482 | 0.369 | 0.295 | 0.386 | 0.282 | 0.195 |  |  |  |  |  | 0.884 | 0.771 | 0.804 | 0.613 | 0.613
NCI-H1299 |  |  |  |  | 1.09 | 1.03 | 1.04 | 1.02 | 0.948 |  |  |  |  |  | 1.05 | 1 | 1.01 | 0.965 | 0.893
NCI-H1395 | 0.453 | 0.398 | 0.439 | 0.429 | 1.06 | 1.19 | 0.905 | 0.917 | 0.886 | 1.04 | 1.04 | 0.848 | 0.927 | 0.725 |  |  |  |  | 
NCI-H1563 | 0.646 | 0.659 | 0.612 | 0.641 |  |  |  |  |  | 0.838 | 0.99 | 0.797 | 1.14 | 0.839 | 0.924 | 0.818 | 0.943 | 0.948 | 0.8
NCI-H1623 | 0.568 | 0.545 | 0.627 | 0.574 |  |  |  |  |  |  |  |  |  |  |  |  |  |  | 
NCI-H1648 |  |  |  |  |  |  |  |  |  | 0.656 | 0.736 | 0.99 | 0.966 | 0.532 |  |  |  |  | 
NCI-H1703 |  |  |  |  | 0.89 | 0.945 | 0.898 | 0.635 | 0.691 |  |  |  |  |  | 0.447 | 0.297 | 0.235 | 0.221 | 0.301
NCI-H1793 | 0.402 | 0.385 | 0.37 | 0.315 | 0.402 | 0.463 | 0.402 | 0.449 | 0.4 | 0.659 | 0.832 | 0.838 | 0.849 | 0.598 |  |  |  |  | 
NCI-H1944 | 0.183 | 0.187 | 0.196 | 0.183 | 1.1 | 0.975 | 1.08 | 1.02 | 1.01 | 0.626 | 0.656 | 0.84 | 0.619 | 0.819 |  |  |  |  | 
NCI-H2170 | 0.336 | 0.291 | 0.355 | 0.323 | 0.654 | 0.586 | 0.572 | 0.533 | 0.63 | 0.262 | 0.29 | 0.244 | 0.348 | 0.352 |  |  |  |  | 
NCI-H2342 | 0.474 | 0.503 | 0.492 | 0.362 |  |  |  |  |  | 0.755 | 0.776 | 0.846 | 0.79 | 0.728 |  |  |  |  | 
SK-MES-1 | 0.58 | 0.532 | 0.475 | 0.414 | 1.23 | 1.29 | 1.29 | 1.11 | 1 | 1.01 | 1 | 1.11 | 1.14 | 0.993 |  |  |  |  | 
SW 900 |  |  | 0.827 | 0.562 |  |  |  |  |  | 0.513 | 0.527 | 0.527 | 0.474 | 0.486 |  |  |  |  | 
